Measurements from ChEMBL document CHEMBL1201862, “PubChem BioAssay data set” (2004).
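Assay format: 96-well plates, 48-hour exposure. GI50 marks 50% less growth.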 Calls of active or inactive are those of the source. No stated cut-off is given here; in the data, active = GI50 up to about 1.1 µM and inactive = higher.

How the values were obtained:
Test in all cases: growth of human tumour cells (NCI), 48 h
[1] = system: DLD-1
[2] = system: DMS-273
[3] = system: HOP-18
[4] = system: KM-20L2
[5] = system: LXFL 529
[6] = system: M19-MEL
[7] = system: RXF 631
[8] = system: SNB-78
[9] = system: XF498

SMILES	GI50 [1]	GI50 [2]	GI50 [3]	GI50 [4]	GI50 [5]	GI50 [6]	GI50 [7]	GI50 [8]	GI50 [9]
COc1cc2c(c(O)c1O)-c1ccc(OC)c(=O)cc1C(NC(C)=O)CC2 (centres undefined)	29.6 µM (inactive)	5.07 µM (inactive)	> 22.1 µM (inactive)	3.8 µM (inactive)	5.25 µM (inactive)	6.98 µM (inactive)	38 µM (inactive)	4.54 µM (inactive)	6.18 µM (inactive)
N#Cc1ccc(Cc2ccccn2)cc1Cl	> 100 µM (inactive)	> 100 µM (inactive)	> 100 µM (inactive)	–	> 100 µM (inactive)	> 100 µM (inactive)	> 100 µM (inactive)	> 100 µM (inactive)	–
Cc1cc([N+](=O)[O-])c(C)c2c1[nH]c1ccc(O)cc12	16.8 µM (inactive)	> 100 µM (inactive)	55.1 µM (inactive)	–	–	> 100 µM (inactive)	–	> 100 µM (inactive)	> 100 µM (inactive)
COc1ccc2[nH]cc(CCNC(=O)[C@](O)(Cc3cn(C)c4ccccc34)[C@@]3(O)OCC(O)C3O)c2c1 (some centres undefined)	> 100 µM (inactive)	> 100 µM (inactive)	> 100 µM (inactive)	> 100 µM (inactive)	67.8 µM (inactive)	> 100 µM (inactive)	> 100 µM (inactive)	–	90.6 µM (inactive)
BrCc1ccc2ccc3ccc(CBr)nc3c2n1	–	1.77 µM (inactive)	1.83 µM (inactive)	3.28 µM (inactive)	1.75 µM (inactive)	3.86 µM (inactive)	–	2.13 µM (inactive)	–
CCCCCCCC(=O)OCC1OC(OC)C(NC(=O)N(CCCl)N=O)C(O)C1O (centres undefined)	11.9 µM (inactive)	2.9 µM (inactive)	18.5 µM (inactive)	20.8 µM (inactive)	16.9 µM (inactive)	17.9 µM (inactive)	2.48 µM (inactive)	22.9 µM (inactive)	10.2 µM (inactive)
CCOC(=O)C12CCCC1(O)N(NC(N)=O)C(C)=C2C(=O)OC (centres undefined)	> 100 µM (inactive)	> 100 µM (inactive)	> 100 µM (inactive)	> 100 µM (inactive)	> 100 µM (inactive)	> 100 µM (inactive)	> 100 µM (inactive)	> 100 µM (inactive)	> 100 µM (inactive)
CCOC(=O)NC/C=C/COC1CCCCO1 (centres undefined)	> 100 µM (inactive)	> 100 µM (inactive)	> 100 µM (inactive)	> 100 µM (inactive)	> 100 µM (inactive)	> 100 µM (inactive)	–	> 100 µM (inactive)	–
COc1ccc(C(=O)C(c2ccc(OCc3ccccc3)cc2)c2ccc(OCc3ccccc3)cc2)cc1	> 100 µM (inactive)	> 100 µM (inactive)	–	> 100 µM (inactive)	–	> 100 µM (inactive)	2.67 µM (inactive)	> 100 µM (inactive)	> 100 µM (inactive)
COC(=O)c1ccc(C=C(C#N)C#N)cc1	22.2 µM (inactive)	17.4 µM (inactive)	36.1 µM (inactive)	30.6 µM (inactive)	18.3 µM (inactive)	25.2 µM (inactive)	28.2 µM (inactive)	–	–
O=C(CC1(O)C(=O)Nc2c(Cl)ccc(Cl)c21)c1ccco1 (centres undefined)	39.7 µM (inactive)	34.6 µM (inactive)	> 100 µM (inactive)	37.8 µM (inactive)	14 µM (inactive)	2.31 µM (inactive)	26.4 µM (inactive)	51.8 µM (inactive)	11.9 µM (inactive)
Nc1ccc2nc(Nc3ccc(F)cc3)cnc2c1	> 100 µM (inactive)	> 100 µM (inactive)	–	–	–	> 100 µM (inactive)	–	–	> 100 µM (inactive)
COC1=CC(=O)C2(C=C1OC)OC[C@H]1Oc3c(ccc4c3C=CC(C)(C)O4)C(=O)[C@H]12 (some centres undefined)	43.6 µM (inactive)	35.1 µM (inactive)	–	46.1 µM (inactive)	33.3 µM (inactive)	40.8 µM (inactive)	> 100 µM (inactive)	37.8 µM (inactive)	40.9 µM (inactive)
COc1ccc(C(=C(C#N)C#N)c2ccc(OC)cc2)cc1	–	> 100 µM (inactive)	–	> 100 µM (inactive)	> 100 µM (inactive)	–	–	> 100 µM (inactive)	–
NC(=O)/N=C1/CCC2C3CCCC2C13	> 100 µM (inactive)	> 100 µM (inactive)	> 100 µM (inactive)	> 100 µM (inactive)	> 100 µM (inactive)	–	–	> 100 µM (inactive)	> 100 µM (inactive)
C[N+](C)(C)CC(=O)NC(=O)N/N=C\C(CC#N)CN(Cc1ccccc1)Cc1ccccc1 (centres undefined)	> 100 µM (inactive)	> 100 µM (inactive)	59.6 µM (inactive)	> 100 µM (inactive)	> 100 µM (inactive)	> 100 µM (inactive)	> 100 µM (inactive)	> 100 µM (inactive)	> 100 µM (inactive)
COc1ccc(/C=C2\C(=O)Nc3ccccc32)cc1OC	–	64.7 µM (inactive)	> 100 µM (inactive)	> 100 µM (inactive)	58.1 µM (inactive)	–	–	37.7 µM (inactive)	> 100 µM (inactive)
CC1=CCC23C(C1)OC(Br)(C=CC2(C)O)C3(C)C (centres undefined)	> 100 µM (inactive)	> 100 µM (inactive)	> 100 µM (inactive)	–	–	> 100 µM (inactive)	–	> 100 µM (inactive)	> 100 µM (inactive)
O=C(N/C(=C\c1ccc(Cl)cc1)c1nc2ccccc2[nH]1)c1ccccc1	15.8 µM (inactive)	21.1 µM (inactive)	13.7 µM (inactive)	2.44 µM (inactive)	15.3 µM (inactive)	19 µM (inactive)	–	29.3 µM (inactive)	18.6 µM (inactive)
N#Cc1c(-c2ccccc2)c(-c2ccccc2)cc2c(=O)c3ccc(Cl)cc3[nH]c12	> 100 µM (inactive)	> 100 µM (inactive)	> 100 µM (inactive)	> 100 µM (inactive)	> 100 µM (inactive)	> 100 µM (inactive)	–	–	> 100 µM (inactive)
O=C1[C@@H]2C(c3ccccc3Br)=NO[C@@H]2C(=O)N1c1ccc(Cc2ccc(N3C(=O)[C@H]4C(c5ccccc5Br)=NO[C@H]4C3=O)cc2)cc1	> 100 µM (inactive)	> 100 µM (inactive)	45.6 µM (inactive)	> 100 µM (inactive)	> 100 µM (inactive)	> 100 µM (inactive)	> 100 µM (inactive)	> 100 µM (inactive)	67.9 µM (inactive)
COC(=O)c1cc2c(=O)n(C)c3ccccc3n2c1C(=O)OC	30.1 µM (inactive)	51.6 µM (inactive)	–	53.3 µM (inactive)	> 100 µM (inactive)	> 100 µM (inactive)	> 100 µM (inactive)	> 100 µM (inactive)	20.4 µM (inactive)
Nc1ccccc1C(=O)/C=C/c1c(O)ccc2ccccc12	> 100 µM (inactive)	> 100 µM (inactive)	> 100 µM (inactive)	> 100 µM (inactive)	> 100 µM (inactive)	19.4 µM (inactive)	> 100 µM (inactive)	> 100 µM (inactive)	–
CC[C@H]1CC(=O)c2c(cc3c(c2O)C(=O)c2ccccc2C3=O)[C@@]1(C#N)C(=O)OC(C)(C)C	2.33 µM (inactive)	2.42 µM (inactive)	3.52 µM (inactive)	4.08 µM (inactive)	3.25 µM (inactive)	3.7 µM (inactive)	–	4.89 µM (inactive)	2.74 µM (inactive)
CN(C)CCNC(=O)c1cc2ccccc2c2nc3ccccc3nc12	0.447 µM (active)	0.448 µM (active)	5.82 µM (inactive)	0.946 µM (active)	1.43 µM (inactive)	1.01 µM (active)	–	3.55 µM (inactive)	–
COc1ccc2c(c1)O[C@@H]1c3ccc(OC)cc3OC[C@H]21	45.2 µM (inactive)	14.1 µM (inactive)	–	–	28.8 µM (inactive)	31.4 µM (inactive)	–	33.8 µM (inactive)	25.6 µM (inactive)
C=CCC12CCC(=O)[C@@]1(C)CC=C(O)C2=O (some centres undefined)	> 100 µM (inactive)	> 100 µM (inactive)	> 100 µM (inactive)	> 100 µM (inactive)	> 100 µM (inactive)	> 100 µM (inactive)	–	> 100 µM (inactive)	–
CC(=O)OC1CC2CCN3C(=O)c4cc5c(cc4[C@H](C1OC(C)=O)C23)OCO5 (some centres undefined)	> 100 µM (inactive)	> 100 µM (inactive)	–	> 100 µM (inactive)	> 100 µM (inactive)	> 100 µM (inactive)	–	> 100 µM (inactive)	–
O=C1CC[C@H](NC(=O)Cc2ccccc2)C(=O)N1 [ANTINEOPLASTON A10]	> 1250 µM (inactive)	> 1250 µM (inactive)	> 1250 µM (inactive)	> 1250 µM (inactive)	> 1250 µM (inactive)	> 1250 µM (inactive)	–	–	> 1250 µM (inactive)
